From ChEMBL document CHEMBL1146616, “Synthesis and structure-activity relationships of open D-Ring galanthamine analogues” (Bioorg Med Chem Lett, 2003)

Tests used:
[1] = target: Acetylcholinesterase (Electrophorus electricus, UniProt O42275)
Description: In vitro inhibitory activity against acetylcholinesterase (AChE) in Electrophorus electricus

[2] = target: T1, Cholinesterase (Homo sapiens, UniProt P06276)
Description: In vitro inhibitory activity against Butyrylcholinesterase (BChE) in human serum

[3] = target: T1, Cholinesterase; test: Ratio of inhibitory activity against butyrylcholinesterase (BChE) to that of acetylcholinesterase (AChE)

Chain of Acetylcholinesterase (O42275 whole entry): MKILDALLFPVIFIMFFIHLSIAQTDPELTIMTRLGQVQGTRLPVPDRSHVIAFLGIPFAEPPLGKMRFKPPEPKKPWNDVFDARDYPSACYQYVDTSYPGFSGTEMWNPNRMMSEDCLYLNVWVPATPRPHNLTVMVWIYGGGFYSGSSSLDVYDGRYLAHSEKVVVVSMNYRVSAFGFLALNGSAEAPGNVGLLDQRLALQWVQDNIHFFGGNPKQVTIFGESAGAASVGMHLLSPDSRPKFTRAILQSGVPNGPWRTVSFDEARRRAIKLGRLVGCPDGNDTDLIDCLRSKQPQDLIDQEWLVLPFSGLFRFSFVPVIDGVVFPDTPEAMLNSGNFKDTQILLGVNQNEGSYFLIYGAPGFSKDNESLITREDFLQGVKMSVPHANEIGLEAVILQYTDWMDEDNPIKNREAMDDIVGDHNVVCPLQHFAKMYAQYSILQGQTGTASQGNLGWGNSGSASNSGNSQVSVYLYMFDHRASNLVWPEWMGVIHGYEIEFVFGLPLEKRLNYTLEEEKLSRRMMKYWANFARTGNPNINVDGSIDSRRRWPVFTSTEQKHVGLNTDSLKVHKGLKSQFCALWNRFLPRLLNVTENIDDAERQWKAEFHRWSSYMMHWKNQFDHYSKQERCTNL
T1 sequence (P06276 whole entry): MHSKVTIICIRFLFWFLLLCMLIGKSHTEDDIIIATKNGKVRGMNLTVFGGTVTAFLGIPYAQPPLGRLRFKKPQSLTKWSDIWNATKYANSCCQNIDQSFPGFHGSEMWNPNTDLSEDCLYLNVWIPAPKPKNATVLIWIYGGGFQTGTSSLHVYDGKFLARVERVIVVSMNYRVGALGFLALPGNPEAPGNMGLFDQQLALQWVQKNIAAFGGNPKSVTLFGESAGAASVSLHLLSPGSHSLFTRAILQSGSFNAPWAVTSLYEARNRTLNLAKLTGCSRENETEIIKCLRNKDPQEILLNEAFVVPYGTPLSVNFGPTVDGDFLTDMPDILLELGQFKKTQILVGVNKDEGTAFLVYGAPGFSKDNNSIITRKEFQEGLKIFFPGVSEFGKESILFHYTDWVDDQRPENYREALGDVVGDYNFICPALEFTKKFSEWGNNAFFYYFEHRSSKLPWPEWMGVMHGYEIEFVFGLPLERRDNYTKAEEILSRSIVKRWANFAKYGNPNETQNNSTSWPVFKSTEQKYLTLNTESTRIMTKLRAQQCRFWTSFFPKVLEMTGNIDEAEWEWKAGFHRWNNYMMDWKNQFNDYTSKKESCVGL

SMILES | IC50 [1] [µM] | IC50 [2] [µM] | Selectivity [3]
COc1ccc2c3c1O[C@H]1C[C@@H](O)C=C[C@@]31CCN(C)OC2 | 9900 | 960 | 
CCOC(=O)N(C)CC[C@@]12C=C[C@H](O)C[C@@H]1Oc1c(OC)ccc(C=O)c12 | 1000 | 155 | 
CCOC(=O)N1CC[C@@]23C=C[C@H](O)C[C@@H]2Oc2c(OC)ccc(c23)C1 | 67 | 300 | 4.5
CCOC(=O)N(C)CC[C@@]12C=C[C@H](O)C[C@@H]1Oc1c(OC)ccc(CO)c12 | 580 | 216 | 
CCOC(=O)O[C@H]1C=C[C@@]2(CCN(C)C(=O)OCC)c3c(CCl)ccc(OC)c3O[C@H]2C1 | 650 | 790 | 1.2
